The text below walks through data of paper PMC5442763, “Selective Inhibition of ADAM17 Efficiently Mediates Glycoprotein Ibα Retention During Ex Vivo Generation of Human Induced Pluripotent Stem Cell‐Derived Platelets” (Stem Cells Translational Medicine, 2016).

For assay [1], the system named is human iPSC-derived MKs and platelets. Description: Generation of MKs and platelets from human iPSC-derived HPCs at 37°C, flow cytometry. Format: cell-based. The following applies: for GPIbα retention by iPSC-derived platelets, inhibitor only during platelet production phase: days 21–23 or 24, KP-457 15, BIRB796 10, U0126 10, BMS345541 10, Z-VAD 10, Ro31-8220 3 μmol/l; for number of CD41a+ total iPSC platelets / retention of GPIbα expression on CD41a+ iPSC-derived platelets / number of CD41a+ iPSC-derived MKs: KP-457 15 μmol/l, GM-6001 50 μmol/l, p38 MAP kinase inhibitor 10 μmol/l; for number of CD41a+ iPSC-derived MKs: MK differentiation and platelet production phases. As for the experimental part:
Directed differentiation to MKs and platelets from iPSCs and ESCs was performed as described previously. Briefly, 3 × 10^4 HPCs derived from iPS‐sacs on C3H10T1/2 feeder cells in the presence of 20 ng/ml vascular endothelial growth factor were transferred on day 14 of culture onto C3H10T1/2 feeder cells in differentiation medium supplemented with 50 ng/ml stem cell factor, 100 ng/ml thrombopoietin, 25 U/ml heparin sodium, and test compounds at 24°C or 37°C. The medium was refreshed every 3 days, and nonadherent cells were collected and analyzed on days 22–24.
(§1) Flow cytometric analysis was performed as previously described. Briefly, iPSC‐ and ESC‐derived MKs on days 22–24 and platelets in their supernatants were stained with combinations of antibodies for 30 minutes on ice (for MKs) or at room temperature (for platelets). Samples of MKs/platelets were then washed, diluted with staining medium (phosphate‐buffered saline containing 3% fetal bovine serum), and analyzed using flow cytometry (FACSAria; BD). Trucount tubes (BD) were used to quantify the MKs and platelets.
In general terms: Flow cytometry measures light scatter and fluorescence of single cells or particles in a stream.

For a further assay, the system named is platelet aggregation. The assay can be described thus: Platelet aggregation induced by thrombin or collagen. It counts as cell-based.
The test system of a further assay is human washed platelets. Description: CCCP-induced GPIbα shedding from washed platelets. It counts as cell-based. The following applies: relative to maximum inhibition elicited by KP-457 or GM-6001. As for the experimental part:
as §1
Washed platelets were prepared as described elsewhere.

For the next assay, the target named is T1, human ADAM10 (Homo sapiens, UniProt O14672).
T1 construct: purchased R&D Systems
T1 sequence (O14672 214-748): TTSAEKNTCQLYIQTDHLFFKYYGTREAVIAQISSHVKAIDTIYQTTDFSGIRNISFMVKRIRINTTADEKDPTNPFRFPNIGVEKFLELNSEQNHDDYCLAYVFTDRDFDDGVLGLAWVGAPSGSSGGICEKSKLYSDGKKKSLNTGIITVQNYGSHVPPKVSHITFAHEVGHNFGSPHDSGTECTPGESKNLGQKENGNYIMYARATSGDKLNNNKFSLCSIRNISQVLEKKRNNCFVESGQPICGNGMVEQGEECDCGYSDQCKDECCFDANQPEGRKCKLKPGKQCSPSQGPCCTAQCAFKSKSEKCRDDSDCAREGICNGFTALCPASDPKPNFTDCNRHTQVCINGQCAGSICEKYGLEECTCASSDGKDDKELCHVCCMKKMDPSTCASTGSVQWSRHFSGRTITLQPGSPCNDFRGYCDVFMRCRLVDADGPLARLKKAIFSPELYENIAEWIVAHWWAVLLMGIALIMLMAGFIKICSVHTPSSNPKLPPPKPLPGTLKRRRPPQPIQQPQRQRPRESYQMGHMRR
The assay can be described thus: MMP and ADAM activity assay (fluorescence-based): ADAM10. As to conditions: cell-free fluorescence assay. It counts as biochemical. As for the experimental part: (§2) KP‐457 and GM‐6001 were tested for their ability to inhibit MMP‐ and ADAM‐catalyzed cleavage of substrates in a fluorescence‐based assay. Human ADAM17, ADAM10, and MMP17 were from R&D Systems (Minneapolis, MN, http://www.rndsystems.com), and human MMP1, MMP2, MMP3, MMP8, MMP9, MMP13, and MMP14 were from EMD Millipore. MMP1, MMP2, MMP8, MMP9, MMP13, and MMP17 were activated using p‐aminophenylmercuric acetate (Sigma‐Aldrich) before testing. Fluorogenic substrates for measuring activity of ADAM10 and ADAM17 [Nma‐[…](Dnp)r‐NH2, based on the cleavage site of TNF‐α]; MMP1, MMP9, MMP13, and MMP14 [Dnp‐P‐Cha‐GC(Me)HAK(N‐Me‐Abz)‐NH2]; MMP3 [MOCAc‐RPKPVE‐Nva‐WRK(Dnp)‐NH2]; and MMP2, MMP8, and MMP17 [MOCAc‐PLGL‐A2pr(Dnp)‐AR‐NH2] were all provided by Peptide Institute (Osaka, Japan, https://www.peptide.co.jp/en) and used as substrates. In addition, inhibitory activities were measured using LC/MS/MS with a GPIbα‐based substrate peptide ([…]), a C terminal‐based standard peptide ([…]), and an internal standard peptide ([…]). These peptides were synthetized by Scrum (Tokyo, Japan, http://www.scrum‐net.co.jp/english/top_en.htm).

Assay [2] deals with T2, Human ADAM17 (Homo sapiens, UniProt P78536).
T2 construct: purchased R&D Systems
T2 sequence (P78536 215-824): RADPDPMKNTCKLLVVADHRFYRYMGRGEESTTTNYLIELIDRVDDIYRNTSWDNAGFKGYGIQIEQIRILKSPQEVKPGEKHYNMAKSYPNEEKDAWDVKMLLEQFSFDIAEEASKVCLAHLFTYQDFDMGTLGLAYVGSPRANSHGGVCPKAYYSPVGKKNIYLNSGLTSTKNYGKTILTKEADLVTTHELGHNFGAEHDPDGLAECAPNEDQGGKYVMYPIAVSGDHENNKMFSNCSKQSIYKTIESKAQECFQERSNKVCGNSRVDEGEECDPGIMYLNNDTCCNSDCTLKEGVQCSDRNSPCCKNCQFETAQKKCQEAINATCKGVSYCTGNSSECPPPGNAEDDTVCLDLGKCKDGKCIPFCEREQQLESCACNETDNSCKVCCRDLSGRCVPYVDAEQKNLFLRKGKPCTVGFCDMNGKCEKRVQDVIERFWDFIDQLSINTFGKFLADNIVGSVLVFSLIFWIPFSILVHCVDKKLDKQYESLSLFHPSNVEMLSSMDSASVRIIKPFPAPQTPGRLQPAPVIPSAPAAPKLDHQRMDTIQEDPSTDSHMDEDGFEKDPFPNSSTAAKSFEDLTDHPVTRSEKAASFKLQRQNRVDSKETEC
Description: MMP and ADAM activity assay (fluorescence-based, cell-free): ADAM17. Format: biochemical. The following applies: cell-free fluorescence assay, TNF-α cleavage site substrate.
Description: as §2, with “Human” for “KP‐457 and GM‐6001 were tested for their ability to inhibit MMP‐ and ADAM‐catalyzed cleavage of substrates in a fluorescence‐based assay. Human”

A further assay addresses T3, human MMP17 (Homo sapiens, UniProt Q9ULZ9).
T3 construct: purchased R&D Systems
The assay can be described thus: MMP and ADAM activity assay (fluorescence-based): MMP17. It counts as biochemical. As to conditions: cell-free fluorescence assay. As for the experimental part:
as §2

Assay [3] deals with T2, Human ADAM17. Description: Cleavage of GPIbα-based substrate peptide by ADAM17 (LC/MS/MS). As to conditions: read-out: IC50, inhibition of C-terminal cleavage of the GPIbα sequence by ADAM17. Format: biochemical.
Description: as §2, with “Human” for “KP‐457 and GM‐6001 were tested for their ability to inhibit MMP‐ and ADAM‐catalyzed cleavage of substrates in a fluorescence‐based assay. Human”
(1 picture or pasted object on this page, not shown here)

Another assay addresses T4, human MMP13 (Homo sapiens, UniProt P45452).
T4 construct: purchased EMD Millipore
Description: MMP and ADAM activity assay (fluorescence-based): MMP13. It counts as biochemical. As to conditions: cell-free fluorescence assay.
Description: as §2, with “Human” for “KP‐457 and GM‐6001 were tested for their ability to inhibit MMP‐ and ADAM‐catalyzed cleavage of substrates in a fluorescence‐based assay. Human”

Assay [4] relates to mouse ESC-derived platelets. Details: method as in PMID 18663123. The following applies: 100 µmol/l; cited from earlier work.
Another assay deals with T5, human MMP14 (Homo sapiens, UniProt P50281).
T5 construct: purchased EMD Millipore
The assay can be described thus: MMP and ADAM activity assay (fluorescence-based): MMP14. Format: biochemical. The following applies: cell-free fluorescence assay. As to the method:
as §2

The next assay addresses T6, human MMP3 (Homo sapiens, UniProt P08254).
T6 construct: purchased EMD Millipore
Description: MMP and ADAM activity assay (fluorescence-based): MMP3. Format: biochemical. The following applies: cell-free fluorescence assay. As to the method: as §2

In a further assay the test system is mouse platelets. Details: method as in PMID 23801636. As to conditions: cited from earlier work.
In a further assay the test system is ADAM17. On the set-up: method as in PMID 25049354. The following applies: cited from earlier work.

Peptide text beside a SMILES is read from it. * marks the point of attachment. Cbz = O=C(OCc1ccccc1)*; CH2F = FC*

T6 sequence (P08254 100-477): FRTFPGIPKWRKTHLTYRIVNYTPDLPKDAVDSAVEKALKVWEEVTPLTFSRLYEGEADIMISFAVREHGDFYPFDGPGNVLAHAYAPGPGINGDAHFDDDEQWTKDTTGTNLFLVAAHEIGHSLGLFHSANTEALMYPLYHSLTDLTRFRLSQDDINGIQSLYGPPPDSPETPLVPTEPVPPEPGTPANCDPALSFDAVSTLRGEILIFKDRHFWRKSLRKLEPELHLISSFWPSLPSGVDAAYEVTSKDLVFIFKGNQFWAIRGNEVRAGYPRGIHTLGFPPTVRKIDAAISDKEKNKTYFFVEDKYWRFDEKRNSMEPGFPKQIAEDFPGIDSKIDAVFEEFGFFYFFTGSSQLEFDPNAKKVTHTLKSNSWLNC
T3 sequence (Q9ULZ9 126-565 limits assumed): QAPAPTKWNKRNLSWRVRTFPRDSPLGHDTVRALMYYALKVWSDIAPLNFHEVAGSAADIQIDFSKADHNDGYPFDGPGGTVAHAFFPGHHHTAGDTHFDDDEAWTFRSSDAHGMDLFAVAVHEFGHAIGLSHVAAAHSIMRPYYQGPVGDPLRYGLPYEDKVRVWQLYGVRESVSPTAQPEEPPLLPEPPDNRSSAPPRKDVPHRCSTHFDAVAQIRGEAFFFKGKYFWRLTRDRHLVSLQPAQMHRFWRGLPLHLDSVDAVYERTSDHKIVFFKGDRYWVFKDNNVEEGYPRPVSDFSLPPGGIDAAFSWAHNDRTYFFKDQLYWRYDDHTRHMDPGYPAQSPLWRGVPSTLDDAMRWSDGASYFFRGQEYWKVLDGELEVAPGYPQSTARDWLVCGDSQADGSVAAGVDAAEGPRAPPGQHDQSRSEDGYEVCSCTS

`Cc1ccc2nc(NCCN)c3ncc(C)n3c2c1` [BMS345541]: the “GPIbα retention by iPSC-derived platelets, inhibitor only during platelet production phase” value in assay [1] is “failed to prevent”.

Take `Cc1ccc(-n2nc(C(C)(C)C)cc2NC(=O)Nc2ccc(OCCN3CCOCC3)c3ccccc23)cc1` [BIRB796]: in assay [1] (BIRB796 10 μmol/l, representative FACS plot, vehicle 48.3%), the “GPIbα+ population in human iPSC-derived CD41a+ platelets” value is listed as 48.0%. In assay [1], the “number of CD41a+ total iPSC platelets” value was “increased”; the “retention of GPIbα expression on CD41a+ iPSC-derived platelets” value (“retention of GPIbα expression” below) was “failed to preserve”; the “number of CD41a+ iPSC-derived MKs” value was “increased”; the “GPIbα retention by iPSC-derived platelets, inhibitor only during platelet production phase” value was “failed to prevent”. Also, in the assay on platelet aggregation, the “effect on collagen-induced platelet aggregation” value is “diminished”. The “plateau of the inhibitory effect on CCCP-induced GPIbα shedding” value in the assay with human washed platelets is “around half the maximum inhibition”.

In the case of `CNC(=O)[C@H](Cc1c[nH]c2ccccc12)NC(=O)[C@@H](CC(=O)NO)CC(C)C` [GM-6001], in assay [1], the “number of CD41a+ total iPSC platelets” value is “no significant effect”. Moreover, in assay [1], the “retention of GPIbα expression” value is “able to retain”. Further, in assay [1], the “number of CD41a+ iPSC-derived MKs” value is “no significant effect”. The IC50 – broadly, the midpoint of a concentration-inhibition curve – on human ADAM10 came to 642 nM; at Human ADAM17 [2], 163 nM; against human MMP17 it was 5.16 nM; on Human ADAM17 [3] it was 53.8 nM; against human MMP13, 0.435 nM; against human MMP14, 2.96 nM. The molecule also returned an IC50 at human MMP3 of 79.8 nM. For the same molecule, in [4], the “GPVI shedding during platelet generation from mouse ESCs” value is recorded as “partially inhibited”.

As to `C[S+]([O-])c1ccc(-c2nc(-c3ccncc3)c(-c3ccc(F)cc3)[nH]2)cc1` (centres unmarked) [SB203580], in assay [1], the “number of CD41a+ total iPSC platelets” value is given as “increased”, the “retention of GPIbα expression” value is given as “failed to preserve” and the “number of CD41a+ iPSC-derived MKs” value is “increased”. Besides, in the assay on mouse platelets, the “suppression of thrombin-induced GPIbα shedding from mouse platelets compared with GM-6001” value is reported as “less effectively”. The “effect on collagen-induced platelet aggregation” value with platelet aggregation is listed as “diminished”. Further, in the assay on human washed platelets, the “plateau of the inhibitory effect on CCCP-induced GPIbα shedding” value is listed as “around half the maximum inhibition”.

Turning to `N#CC(=C(/N)Sc1ccccc1N)/C(C#N)=C(/N)Sc1ccccc1N` [U0126], the “GPIbα retention by iPSC-derived platelets, inhibitor only during platelet production phase” value in assay [1] is reported as “failed to prevent”.

Turning to `CC(NC(=O)C(NC(=O)OCc1ccccc1)C(C)C)C(=O)NC(CC(=O)O)C(=O)CF` (stereo not drawn) [Z‐VAD] (Cbz-Val-Ala-Asp-CH2F; configuration not given here), in [1], the “GPIbα retention by iPSC-derived platelets, inhibitor only during platelet production phase” value is given as “failed to prevent”.

For the molecule `Cn1cc(C2=C(c3cn(CCCSC(=N)N)c4ccccc34)C(=O)NC2=O)c2ccccc21` [Ro31‐8220], in [1], the “GPIbα retention by iPSC-derived platelets, inhibitor only during platelet production phase” value is “failed to prevent”.

With `COc1ccc(S(=O)(=O)N2Cc3ccccc3C[C@@H]2C(=O)NO)cc1` [M8I], the ADAM17 inhibition entry in the assay on ADAM17 was “potently inhibits ADAM17”.
